Assay results from article PMC10522709, “Rational design and characterization of cell-selective antimicrobial peptides based on a bioactive peptide from Crocodylus siamensis hemoglobin” (Scientific Reports, 2023).
Where two headings read alike, the source gives them in different places. Ends that are not written are not given here.

Columns and labels:
Format in all cases: cell-based
[1] = system: Bacillus subtilis (ATCC 6633); conditions: ATCC 6633, 24 h
Method: (§1) Broth microdilution assays were performed as reported previously. In short, the bacteria including Escherichia coli (ATCC 25922), Klebsiella pneumoniae (ATCC 27736), Pseudomonas aeruginosa (ATCC 27853), Bacillus subtilis (ATCC 6633), Staphylococcus aureus (ATCC 25923) and Staphylococcus epidermidis (ATCC 12228) were grown in Nutrient broth to mid-log phase at 37 °C. The bacterial suspension (50 μL, concentration of 1 × 10^6 CFU/mL) was loaded into a well with serially diluted peptide (50 µL, final concentrations ranging from 0–200 μg/mL) in a sterile 96-well plate and incubated at 37 °C for 18 h. The optical density (OD) at 600 nm was measured using a microplate reader (ALLSHENG, Zhejiang, China) in order to determine the growth of the bacteria. The inhibition was estimated using the formula; %inhibition=OD600ofcontrol-OD600ofsample/OD600ofcontrol-OD600ofblank×100 where minimal inhibitory concentration (MIC) is defined as the minimum concentration that inhibited 90% of bacterial growth.
(§2) In order to evaluate the minimal bactericidal concentration (MBC)—the lowest concentration that terminates the growth of bacteria on an agar plate—of the peptide, co-culture medium (100 μL) from each well after the microdilution assay was spread on a nutrient agar plate. Plates were maintained at 37 °C for 24 h and the number of colonies formed was counted to evaluate antimicrobial activity.

[2] = system: Escherichia coli (ATCC 25922); conditions: ATCC 25922, 24 h
Method: as §1, §2

[3] = system: Klebsiella pneumoniae (ATCC 27736); conditions: ATCC 27736, 24 h
Method: as §1, §2

[4] = system: Pseudomonas aeruginosa (ATCC 27853); conditions: ATCC 27853, 24 h
Method: as §1, §2

[5] = system: Staphylococcus aureus (ATCC 25923); conditions: ATCC 25923, 24 h
Method: as §1, §2

[6] = system: Staphylococcus epidermidis (ATCC 12228); conditions: ATCC 12228, 24 h
Method: as §1, §2

[7] = system: Bacillus subtilis (ATCC 6633); conditions: ATCC 6633, 18 h
Method: as §1

[8] = system: Escherichia coli (ATCC 25922); conditions: ATCC 25922, 18 h
Method: as §1

[9] = system: Klebsiella pneumoniae (ATCC 27736); conditions: ATCC 27736, 18 h
Method: as §1

[10] = system: Pseudomonas aeruginosa (ATCC 27853); conditions: ATCC 27853, 18 h
Method: as §1

[11] = system: Staphylococcus aureus (ATCC 25923); conditions: ATCC 25923, 18 h
Method: as §1

[12] = system: Staphylococcus epidermidis (ATCC 12228); conditions: ATCC 12228, 18 h
Method: as §1

[13] = system: several bacterial strains; conditions: for MIC, over all strains tested: 18 h
Method: as §1

human erythrocytes = conditions: red cells of human, 1 h
Method: Human whole blood was obtained from Blood Transfusion Center Faculty of Medicine Khon Kaen University (ethical approval number HE601010). Fresh human erythrocytes were carefully mixed with PBS (1:3) and centrifuged at 1000 × g for 2 min. The supernatant was discarded and the cell pellet was resuspended to 2% w/v in PBS. 100 µL of the resuspended erythrocytes were incubated with the peptide (10 µL, final concentrations ranging from 12.5 to 100 μg/mL, two-fold serial dilution) at 37 °C for 1 h. After the treatment, the plate was centrifuged and the supernatant was taken to determine the optical density at 415 nm using a microplate reader (ALLSHENG, Zhejiang, China). The positive control for this assay was the addition of Triton X-100 (1% v/v), which causes 100% hemolysis. The negative control was cells treated with PBS buffer only. The hemolysis activity was estimated using the equation: %hemolysis=OD415ofsample/OD415ofTritonX-100treatedcontrol×100

[14] = system: human keratinocyte cells (HaCaT); conditions: 24 h
Method: (§3) Human peripheral blood mononuclear cells (PBMC), African green monkey kidney cells (Vero), human keratinocyte cells (HaCaT) and mouse preadipocytes (3T3-L1) were used to evaluate the cytotoxicity of peptides by the MTT assay. PBMCs were isolated using Ficoll medium (GE Healthcare, Uppsala, Sweden) as described by Jangpromma et al.[28]. The PBMCs were then cultured in RPMI 1640, while Vero, HaCaT and 3T3-L1 cells were cultured in DMEM. All culture mediums were supplemented with 10% heat-inactivated fetal bovine serum (FBS) and 1% antibiotic:antimycotic (Gibco, USA). The cells were cultured at 37 °C with 5% CO2/95% relative humidity. After that, PBMC (2 × 10^6 cells/well), Vero (1 × 10^4 cells/well), HaCaT (1 × 10^4 cells/well) and 3T3-L1 (1 × 10^4 cells/well) were individually seeded into 96-well plate and cultured at 37 °C overnight. Next, two-fold serially diluted peptides (3.13–200 μg/mL) were added to the cell culture. After incubation in 5% (v/v) CO2 incubator for 24 h, the medium culture was removed and MTT solution ([…] final concentration in fresh medium culture) was added to the cells and incubated for 30 min. Thereafter, the medium was removed and DMSO (100 µL) was added to each well to dissolve the formazan crystals. The optical density at 570 nm was determined using a microplate reader (ALLSHENG, Zhejiang, China). The cytotoxicity of IL15.3 against Vero, HaCaT and 3T3-L1 cells in the absence of FBS was also measured by the MTT assay to confirm the peptide is not sequestered by proteins in the serum causing artificially low cytotoxicity against eukaryotic cells.
(§4) Cell viability was determined using the equation: %cellviability=OD570ofsample/OD570ofuntreatedcontrol×100
(§5) GraphPad Prism8 (San Diego, CA, USA) was used to calculate IC50 values using a non-linear regression model.

[15] = system: human peripheral blood mononuclear cells (PBMC); conditions: 24 h
Method: as §3, §4, §5

Row | Sequence | MBC [1] | MBC [2] | MBC [3] | MBC [4] | MBC [5] | MBC [6] | MIC [7] | MIC [8] | MIC [9] | MIC [10] | MIC [11] | MIC [12] | MIC, over all strains tested [13] | Hemolysis concentration50 (HC50) (human erythrocytes) | IC50 HaCaT [14] | IC50 PBMC [15] | increase of SI in comparison with IL15.2 ([13]; towards gram-negative bacteria) | increase of SI in comparison with IL15.2 ([13]; towards gram-positive bacteria)
1 | QAIIHNEKVQAHGKKVL [QL17] | > 200 µg/mL | > 200 µg/mL | > 200 µg/mL | > 200 µg/mL | > 200 µg/mL | > 200 µg/mL | > 200 µg/mL | > 200 µg/mL | > 200 µg/mL | > 200 µg/mL | > 200 µg/mL | > 200 µg/mL | > 200 µg/mL | >2000 µg/mL | >200 µg/mL | >200 µg/mL | – | –
2 | IKHWKKVWKHWKKKL [IL15.4] | 10 µg/mL | 6 µg/mL | 50 µg/mL | 14 µg/mL | 25 µg/mL | 12 µg/mL | 6 µg/mL | 4 µg/mL | 14 µg/mL | 10 µg/mL | 12 µg/mL | 9 µg/mL | – | >2000 µg/mL | >200 µg/mL | >200 µg/mL | approximately 6 fold | ~25 fold
3 | IRHWRRVWRHWRRRL [IL15.5] | 12 µg/mL | 25 µg/mL | 100 µg/mL | 50 µg/mL | 50 µg/mL | 15 µg/mL | 8 µg/mL | 15 µg/mL | 75 µg/mL | 35 µg/mL | 25 µg/mL | 12 µg/mL | 8 to 75 µg/mL | 896 µg/mL | 200 µg/mL | 113 µg/mL | – | –
4 | IIHNEKVQAHGKKVL [IL15] | > 200 µg/mL | > 200 µg/mL | > 200 µg/mL | > 200 µg/mL | > 200 µg/mL | > 200 µg/mL | > 200 µg/mL | > 200 µg/mL | > 200 µg/mL | > 200 µg/mL | > 200 µg/mL | > 200 µg/mL | > 200 µg/mL | >2000 µg/mL | >200 µg/mL | >200 µg/mL | – | –
5 | IKHWEKVWKHGKKVL [IL15.1] | > 200 µg/mL | > 200 µg/mL | > 200 µg/mL | > 200 µg/mL | > 200 µg/mL | > 200 µg/mL | > 200 µg/mL | > 200 µg/mL | > 200 µg/mL | > 200 µg/mL | > 200 µg/mL | > 200 µg/mL | > 200 µg/mL | >2000 µg/mL | >200 µg/mL | >200 µg/mL | – | –
6 | IKHWKKVWKHGKKVL [IL15.2] | 60 µg/mL | 150 µg/mL | > 200 µg/mL | > 200 µg/mL | > 200 µg/mL | > 200 µg/mL | 50 µg/mL | 100 µg/mL | > 200 µg/mL | > 200 µg/mL | > 200 µg/mL | > 200 µg/mL | – | >2000 µg/mL | >200 µg/mL | >200 µg/mL | – | –
